Results published in patent US12263171B2, “7-, 8-, and 10-substituted amino triazolo quinazoline derivatives as adenosine receptor antagonists, pharmaceutical compositions and their use” (Merck Sharp & Dohme LLC, priority 2018, dated 2025).

Assays:
[1] = target: human A2a adenosine receptor (Homo sapiens (Human), UniProt P29274); test: A2a receptor affinity radioligand binding assay ([3H] SCH58261, membranes from HEK293 or CHO cells); conditions: unstarred values: radioligand binding
Summary of the method: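 Displacement of tritiated SCH58261 (working dilution 4 nM) from recombinant human A2a receptor membranes (HEK293 or CHO), 60 min at room temperature in Tris pH 7.4/MgCl2 buffer after 15–30 min compound preincubation. Scintillation counting after filtration; normalized percent effect fitted 4-parameter logistic for IC50.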

[2] = target: human A2b adenosine receptor (Homo sapiens (Human), UniProt P29275); test: A2B antagonism in cAMP cell-based assay (LANCE cAMP, HEK293 cells, 600 nM adenosine); conditions: for IC50: values marked *: cAMP cell-based assay
human A2b adenosine receptor, sequence (P29275 whole entry): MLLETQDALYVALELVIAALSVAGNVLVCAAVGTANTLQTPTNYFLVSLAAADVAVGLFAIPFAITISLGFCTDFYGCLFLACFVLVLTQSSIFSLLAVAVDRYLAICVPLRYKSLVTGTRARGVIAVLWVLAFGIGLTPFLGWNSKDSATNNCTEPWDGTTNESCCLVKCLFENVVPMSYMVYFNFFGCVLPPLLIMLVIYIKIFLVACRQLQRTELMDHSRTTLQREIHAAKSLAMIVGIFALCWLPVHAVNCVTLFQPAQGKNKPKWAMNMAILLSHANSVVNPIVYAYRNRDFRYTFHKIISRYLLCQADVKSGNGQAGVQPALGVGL
Protocol: Measurement of A2A and A2B Antagonism in cAMP Cell-Based Assay
All subsequent liquid additions were performed using a multichannel pipettor. […] After this time 5 μL of either 300 nM or 600 nM adenosine (Sigma Cat. No. A9251) for A2A and A2B respectively was added and incubated for 30 minutes at 37° C. and 5% CO2 in a humidified environment. At this time detection mix was prepared by combining the LANCE Eu-W8044 labeled streptavidin and. Biotin-cAMP in detection buffer according to the manufacturers protocol. […] Curve fitting of the percent effect data versus the log of compound concentration used a 4-parameter concentration response curve fitting algorithm to calculate IC50 values.

human A2a adenosine receptor, sequence (P29274 whole entry): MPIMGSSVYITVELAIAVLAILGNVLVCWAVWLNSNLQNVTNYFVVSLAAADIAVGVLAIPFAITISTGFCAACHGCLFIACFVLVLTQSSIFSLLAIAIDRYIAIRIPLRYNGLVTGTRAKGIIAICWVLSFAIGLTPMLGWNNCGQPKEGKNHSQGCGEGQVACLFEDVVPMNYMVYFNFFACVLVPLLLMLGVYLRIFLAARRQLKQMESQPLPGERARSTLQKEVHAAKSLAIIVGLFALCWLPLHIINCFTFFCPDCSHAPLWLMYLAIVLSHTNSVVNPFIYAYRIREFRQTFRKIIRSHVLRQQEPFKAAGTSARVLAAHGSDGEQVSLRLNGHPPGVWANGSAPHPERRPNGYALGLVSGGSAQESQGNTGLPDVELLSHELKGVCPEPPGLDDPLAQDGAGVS

An IC50 [1] of 0.5 nM and an IC50 [2] of 147 nM were found for `CCn1ncc(N2CCC[C@@H](c3nc4c5cccc(OC)c5nc(N)n4n3)C2)c1C` [Example 15, (R)-2-(1-(1-ethyl-5-methyl-1H-pyrazol-4-yl)piperidin-3-yl)-7-methoxy-[1,2,4]triazolo[1,5-c]quinazolin-5-amine] in this work.

An IC50 [1] of 2.2 nM and an IC50 [2] of 1390 nM were found for `COc1cccc2c1nc(N)n1nc(C3CN(c4cnn(CC(C)(C)O)c4)CC(F)(F)C3)nc21` (single isomer, unassigned) [Example 156B, (R or S)-1-(4-(5-(5-amino-7-methoxy-[1,2,4]triazolo[1,5-c]quinazolin-2-yl)-3,3-difluoropiperidin-1-yl)-1H-pyrazol-1-yl)-2-methylpropan-2-ol] in this work.

An IC50 [1] of 10.8 nM and an IC50 [2] of 404 nM were found for `COc1cccc2c1nc(N)n1nc([C@@H]3CCC[C@@H](c4cnn(C)c4)C3)nc21` [Example 136B, 7-methoxy-2-((1R,3R)-3-(1-methyl-1H-pyrazol-4-yl)cyclohexyl)-[1,2,4]triazolo[1,5-c]quinazolin-5-amine] in this work.

In the case of `COc1cccc2c1nc(N)n1nc(C3CCCN(c4cnn(C5CC5)c4)C3C)nc21` (stereo not drawn) [Example 129], the IC50 [1] is reported as 5280 nM and the “*A2B cAMP % inh. @ 10000 nM” value ([2]; @ 10000 nM, marked *) is reported as 30% inh. @ 10000 nM*.

An IC50 [1] of 34 nM and an IC50 [2] of 1680 nM were found for `Cn1cc(N2CCCC(c3nc4c5cccc(F)c5nc(N)n4n3)C2)cn1` (single isomer, unassigned) [Example 131A, (R or S)-7-fluoro-2-(1-(1-methyl-1H-pyrazol-4-yl)piperidin-3-yl)-[1,2,4]triazolo[1,5-c]quinazolin-5-amine] in this work.

An IC50 [1] of 14.9 nM and an IC50 [2] of 314 nM were found for `COc1cccc2c1nc(N)n1nc([C@@H]3CCCN(c4csc(C5CC5)n4)C3)nc21` [Example 85, (R)-2-(1-(2-cyclopropylthiazol-4-yl)piperidin-3-yl)-7-methoxy-[1,2,4]triazolo[1,5-c]quinazolin-5-amine] in this work.

An IC50 [1] of 13.2 nM and an IC50 [2] of 231 nM were found for `COc1cccc2c1nc(N)n1nc([C@@H]3CCN(c4cnn(C5CC5)c4)C3)nc21` [Example 161, (R)-2-(1-(1-cyclopropyl-1H-pyrazol-4-yl)pyrrolidin-3-yl)-7-methoxy-[1,2,4]triazolo[1,5-c]quinazolin-5-amine] in this work.

An IC50 [1] of 0.4 nM and an IC50 [2] of 6.6 nM were found for `CC[C@H]1CC[C@H](c2nc3c4cccc(OC)c4nc(N)n3n2)CN1c1cnn(CC(C)(C)O)c1` [Example 216B, 1-(4-((2S,5S)-5-(5-amino-7-methoxy-[1,2,4]triazolo[1,5-c]quinazolin-2-yl)-2-ethylpiperidin-1-yl)-1H-pyrazol-1-yl)-2-methylpropan-2-ol] in this work.

An IC50 [1] of 1.6 nM and an IC50 [2] of 102 nM were found for `COc1cccc2c1nc(N)n1nc([C@@H]3CCCN(c4cnn(CC(C)(C)OC)c4)C3)nc21` [Example 22, (R)-7-methoxy-2-(1-(1-(2-methoxy-2-methylpropyl)-1H-pyrazol-4-yl)piperidin-3-yl)-[1,2,4]triazolo[1,5-c]quinazolin-5-amine] in this work.

An IC50 [1] of 1 nM and an IC50 [2] of 20.9 nM were found for `COc1cc(F)c2c(c1)nc(N)n1nc([C@@H]3CC[C@H](C)N(c4cnn(CC(C)(C)O)c4)C3)nc21` [Example 223, 1-(4-((2S,5R)-5-(5-amino-10-fluoro-8-methoxy-[1,2,4]triazolo[1,5-c]quinazolin-2-yl)-2-methylpiperidin-1-yl)-1H-pyrazol-1-yl)-2-methylpropan-2-ol] in this work.

An IC50 [1] of 0.5 nM and an IC50 [2] of 6.3 nM were found for `CC[C@@H]1CC[C@@H](c2nc3c4ccc(OC)cc4nc(N)n3n2)CN1c1cnn(C(C)(C)CO)c1` [Example 215B] in this work.

An IC50 [1] of 0.8 nM and an IC50 [2] of 13.1 nM were found for `COc1cccc2c1nc(N)n1nc([C@@H]3CCCN(c4cnn(CS(C)(=O)=O)c4)C3)nc21` [Example 123, (R)-7-methoxy-2-(1-(1-((methylsulfonyl)methyl)-1H-pyrazol-4-yl)piperidin-3-yl)-[1,2,4]triazolo[1,5-c]quinazolin-5-amine] in this work.

An IC50 [1] of 2.4 nM and an IC50 [2] of 491 nM were found for `CC[C@@H]1CC[C@H](c2nc3c4cccc(OC)c4nc(N)n3n2)CN1c1cnn(CC(C)(C)O)c1` (single isomer, unassigned) [Example 216D] in this work.

An IC50 [1] of 1.5 nM and an IC50 [2] of 252 nM were found for `COc1cccc2c1nc(N)n1nc([C@@H]3CCCN(c4cnn(C)c4C)C3)nc21` [Example 10, (R)-2-(1-(1,5-dimethyl-1H-pyrazol-4-yl)pipiperidin-3-yl)-7-methoxy-[1,2,4]triazolo[1,5-c]quinazolin-5-amine] in this work.

An IC50 [1] of 0.4 nM and an IC50 [2] of 27.6 nM were found for `COc1ccc2c(c1)nc(N)n1nc([C@@H]3CC[C@H](C)N(c4cn(CC(C)(C)O)nc4C)C3)nc21` [Example 213, 1-(4-((2S,5R)-5-(5-amino-8-methoxy-[1,2,4]triazolo[1,5-c]quinazolin-2-yl)-2-methylpiperidin-1-yl)-3-methyl-1H-pyrazol-1-yl)-2-methylpropan-2-ol] in this work.

An IC50 [1] of 1.7 nM and an IC50 [2] of 370 nM were found for `COc1cccc2c1nc(N)n1nc([C@@H]3CCCN(c4cccc(C(F)(F)F)c4)C3)nc21` [Example 114, (R)-7-methoxy-2-(1-(3-(trifluoromethyl)phenyl)piperidin-3-yl)-[1,2,4]triazolo[1,5-c]quinazolin-5-amine] in this work.

An IC50 [1] of 1.6 nM and an IC50 [2] of 187 nM were found for `COc1cccc2c1nc(N)n1nc([C@@H]3CCCN(c4cnc(C5CC5)n4C)C3)nc21` [Example 84, (R)-2-(1-(2-cyclopropyl-1-methyl-1H-imidazol-5-yl)piperidin-3-yl)-7-methoxy-[1,2,4]triazolo[1,5-c]quinazolin-5-amine] in this work.

For `COc1cccc2c1nc(N)n1nc([C@@H]3CCCN(c4ncc(C(F)(F)F)cn4)C3)nc21` [Example 109, (R)-7-methoxy-2-(1-(5-(trifluoromethyl)pyrimidin-2-yl)piperidin-3-yl)-[1,2,4]triazolo[1,5-c]quinazolin-5-amine], the IC50 [1] was 52.6 nM and the “*A2B cAMP ^ % @ 10000 nM” value ([2]; @ 10000 nM, marked *, printed with ^ and without inh.) was 22% @ 10000 nM*.

An IC50 [1] of 0.8 nM and an IC50 [2] of 3700 nM were found for `COc1cccc2c1nc(N)n1nc([C@@H]3CCCN(c4c(C)nn(C)c4C)C3)nc21` [Example 11, (R)-7-methoxy-2-(1-(1,3,5-trimethyl-1H-pyrazol-4-yl)piperidin-3-yl)-[1,2,4]triazolo[1,5-c]quinazolin-5-amine] in this work.

An IC50 [1] of 56.8 nM and an IC50 [2] of 1650 nM were found for `COc1cccc2c1nc(N)n1nc(C34CC(C3)N(c3cnn(C)c3)C4)nc21` [Example 127, 7-methoxy-2-(2-(1-methyl-1H-pyrazol-4-yl)-2-azabicyclo[2.1.1]hexan-4-yl)-[1,2,4]triazolo[1,5-e]quinazolin-5-amine] in this work.

An IC50 [1] of 13.2 nM and an IC50 [2] of 2510 nM were found for `Cn1cc(N2CCC[C@@H](c3nc4c5cccc(OC(F)F)c5nc(N)n4n3)C2)cn1` [Example 126, (R)-7-(difluoromethoxy)-2-(1-(1-methyl-1H-pyrazol-4-yl)piperidin-3-yl)-[1,2,4]triazolo[1,5-c]quinazolin-5-amine] in this work.

An IC50 [1] of 14 nM and an IC50 [2] of 42.1 nM were found for `COc1cccc2c1nc(N)n1nc([C@@H]3CCN(c4cnn(C(C)(C)C)c4)C3)nc21` [Example 163, (R)-2-(1-(1-(tert-butyl)-1H-pyrazol-4-yl)pyrrolidin-3-yl)-7-methoxy-[1,2,4]triazolo[1,5-c]quinazolin-5-amine] in this work.

An IC50 [1] of 0.8 nM and an IC50 [2] of 78.3 nM were found for `COc1cccc2c1nc(N)n1nc([C@@H]3CCCN(c4ncn(C)n4)C3)nc21` [Example 83, (R)-7-methoxy-2-(1-(1-methyl-1H-1,2,4-triazol-3-yl)piperidin-3-yl)-[1,2,4]triazolo[1,5-c]quinazolin-5-amine] in this work.

An IC50 [1] of 2.2 nM and an IC50 [2] of 721 nM were found for `COc1cccc2c1nc(N)n1nc([C@@H]3CCCN(c4ncc(F)cn4)C3)nc21` [Example 110, (R)-2-(1-(5-fluoropyrimidin-2-yl)piperidin-3-yl)-7-methoxy-[1,2,4]triazolo[1,5-c]quinazolin-5-amine] in this work.

An IC50 [1] of 2.6 nM and an IC50 [2] of 544 nM were found for `COc1cccc2c1nc(N)n1nc([C@@H]3CCCN(c4nnc(C)o4)C3)nc21` [Example 82, (R)-7-methoxy-2-(1-(5-methyl-1,3,4-oxadiazol-2-yl)piperidin-3-yl)-[1,2,4]triazolo[1,5-c]quinazolin-5-amine] in this work.

An IC50 [1] of 1.4 nM and an IC50 [2] of 211 nM were found for `COc1cccc2c1nc(N)n1nc([C@@H]3CCCN(c4cnn(CC5CCC5)c4)C3)nc21` [Example 8, (R)-2-(1-(1-(cyclobutylmethyl)-1H-pyrazol-4-yl)piperidin-3-yl)-7-methoxy-[1,2,4]triazolo[1,5-c]quinazolin-5-amine] in this work.

An IC50 [1] of 23.5 nM and an IC50 [2] of 292 nM were found for `CC[C@H]1CC[C@@H](c2nc3c4cccc(OC)c4nc(N)n3n2)CN1c1cnn(CC(C)(C)O)c1` [Example 216C, 1-(4-((2S,5R)-5-(5-amino-7-methoxy-[1,2,4]triazolo[1,5-c]quinazolin-2-yl)-2-ethylpiperidin-1-yl)-1H-pyrazol-1-yl)-2-methylpropan-2-ol] in this work.

An IC50 [1] of 3.9 nM and an IC50 [2] of 205 nM were found for `Cn1cc(N2CCCC(c3nc4c5cccc(Cl)c5nc(N)n4n3)C2)cn1` (single isomer, unassigned) [Example 132B] in this work.

An IC50 [1] of 31.6 nM and an IC50 [2] of 651 nM were found for `COc1cccc2c1nc(N)n1nc(C3CCC(C)N(c4cnn(CC(C)(C)O)c4)C3)nc21` (single isomer, unassigned) [Example 143C] in this work.

An IC50 [1] of 0.9 nM and an IC50 [2] of 112 nM were found for `COc1cccc2c1nc(N)n1nc([C@@H]3CCCN(c4cnn5c4CCC5)C3)nc21` [Example 13, (R)-2-(1-(5,6-dihydro-4H-pyrrolo[1,2-b]pyrazol-3-yl)piperidin-3-yl)-7-methoxy-[1,2,4]triazolo[1,5-c]quinazolin-5-amine] in this work.
